{"source": "patent EP2848693A1", "about": "“Concatenation of halogenated alkenyl diphosphate derivatives” (LANXESS Deutschland GmbH, priority 2013, dated 2015)", "target": "T1, ThkCPT (Thermococcus kodakarensis, UniProt Q5JGE1)", "T1 construct": "made in house; host or cells: E. coli", "T1 sequence (Q5JGE1 1-264)": "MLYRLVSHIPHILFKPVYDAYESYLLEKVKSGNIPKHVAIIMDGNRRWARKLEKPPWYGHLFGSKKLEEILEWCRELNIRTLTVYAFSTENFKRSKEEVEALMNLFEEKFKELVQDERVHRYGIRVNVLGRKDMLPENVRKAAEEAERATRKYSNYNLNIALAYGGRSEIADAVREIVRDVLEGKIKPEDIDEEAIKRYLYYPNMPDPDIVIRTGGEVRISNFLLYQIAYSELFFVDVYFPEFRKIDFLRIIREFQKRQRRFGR", "assay": "Product chain length by HPLC with fluorescent starter substrate 110", "format": "biochemical, Thermococcus kodakaraensis", "conditions": "10 µM ThkCPT, 110 as starter substrate, room temperature 25°C", "experimental": "Zur Bestimmung der Produktkettenlängen wurden 500 µL Enzymassays in MS-Gläschen durchgeführt. […] Die Extraktion der Polyprenyldiphosphate erfolgte mit 500 µL 1-Butanol. Die Butanolphase wurde in ein neues Glas überführt und unter Stickstoffstrom von dem Lösungsmittel befreit. Die Hydrolyse der Diphosphate zum Polyprenol erfolgte durch Zugabe von 200 µL Hydrolysepuffer (20% Isopropanol, 4,4 Units/mL saure Phophatase aus Kartoffeln, 0,1 % Triton X-100, 50 mM Natriumacetat (pH 4,7)) und wurde über Nacht bei 37 °C inkubiert. Die Polyprenole wurden mit 500 µL nHexan extrahiert und zur weiteren DC- oder HPLC-Analyse vorbereitet. Für DC-Experimente und LC/ESI-MS-Analysen wurde die nHexan-Phase in ein neues Glas überführt, das Lösungsmittel abgedampft und die Produkte erneut in 100 µL nHexan resuspendiert um eine Aufkonzentrierung zu erreichen. Für HPLC-Analysen mit 110 ((2E,6E)-8-O-(N-methyl-2-aminobenzoyl)-3,7-dimethyl-2,6-octandien-1-diphosphat) als Startersubstrat wurde die nHexan-Phase 1:3 verdünnt in das HPLC-System mittels Autosampler injiziert.\nDie HPLC-Analyse der Polyprenole erfolgte an einer Anlage von Merck HITACHI D-7000, wobei als stationäre Phase eine YMC-ODS AQ (150 x 4 mm, 5 µm; YMC Europe GmbH, Dinslaken) Säule verwendet wurde. Die Elution erfolgte mit 1 mL·min^-1 und die Detektion bei 210 nm mit einem UV-VIS Detektor: Merck HITACHI L-7420. Das Injektionsvolumen betrug dabei 5 µL. Die mobile Phase setzte sich aus Laufmittel A (MeOH/H2O/Isopropanol 12:1:8 (v/v/v)) und Laufmittel B (nHexan/Isopropanol 7:3 (v/v)) zusammen. Die Probenaufgabe erfolgte mittels Autosampler (Merck HITACHI L-7250). [drawing 35]\nZur selektiven und vor allem sensitiven Detektion von Polyprenolen kann ein alternatives, fluoreszierendes Startersubstrat verwendet werden, (2E,6E)-8-O-(N-methyl-2-aminobenzoyl)-3,7-dimethyl-2,6-octandien-1-diphosphat (110). Die Analyse erfolgte wie in Beispiel 6 beschrieben. Dabei wurden 3 µL pro Probe injiziert und die Detektion erfolgte über Fluoreszenz: Ex 352 nm / Em 420 nm wobei das Gerät Merck HITACHI L-7480 als Fluoreszenzdetektor verwendet wurde. […]"}
{"smiles": "C=C(Cl)CCOP(=O)(O)OP(=O)(O)O", "note": "[Cl-BPP, 3-Chlor-3-Butenyldiphosphat]", "values": [{"measurement": "Kondensationen (Reaktionsprodukte)", "result": "mehr als zwei Kondensationen"}]}
